Columns and labels:
[1] = change in body weight during dermal application; details: after 4 weeks of application, 3 mg/mouse/day dermal
Description: Experiments were carried out using 24 male C57BL/6N mice aged 6 weeks, which were purchased from OrientBio Inc., acclimated for two weeks in a laboratory environment, and then divided into a total of three groups (n=5) of a negative control (CON), a positive control (MXD) and a nonanal group (NN). An animal laboratory was maintained at 21±2.0° C., a relative humidity of 50±5%, on a 12-hour day/night cycle. During the experimental period, a general solid feed (chow) and water were freely offered to the mice.
To investigate a hair development effect, an 8-week-old mouse with telogen-phase hair, in which a dorsal skin color was pink, were used. The dorsal hair of the mouse was removed using a clipper for a mouse, and the sample was applied daily at 4 p.m. for 4 weeks. The test material nonanal (3 mg/mouse/day) and the control drug Minoxidil (3 mg/mouse/day) were applied after being dissolved in the vehicle (ethanol:water:propylene glycol=5:3:2), and only the vehicle was applied to the negative control group.
A body weight of the experimental animal from immediately before the application of an agent for hair development to the end of the application was measured weekly.

[2] = test system: Lymphoid enhancer factor (LEF); test: q-PCR gene expression in dorsal skin tissue; format: in vivo, mouse; details: 4 weeks
Description: (§1) To quantify total RNA in skin tissue of the experimental animals, 1 mL of a TRIzol solution was added to 50 to 100 mg of skin tissue and homogenized, and then centrifuged at 4° C. and 12,000×g for 10 minutes. The supernatant was transferred to a new tube, 200 μl of chloroform was added, and then the resulting mixture was vigorously shaken. This process was repeated twice, then the supernatant was transferred to a new tube, in which isopropanol and the supernatant were added in a ratio of 1:1. The resulting mixture was shaken 10 times, and maintained at room temperature for 10 minutes and centrifuged at 12,000×g and 4° C. for 10 minutes to remove the supernatant. Then, 1 ml of 70% ethanol was added to the remaining pellet and centrifuged at 7,500×g and 4° C. for 5 minutes. Following the removal of ethanol, a tube containing the RNA pellet was dried at room temperature for 5 minutes, and the RNA pellet was dissolved in nuclease-free water. Concentrations of the extracted RNA specimens at 260 nm and 280 nm wavelengths were measured using a UV/VIS spectrophotometer (Beckman Coulter, DU730), and agarose gel electrophoresis was performed to confirm the integrity of the RNA specimens.
(§2) Following the isolation of RNA, cDNA was synthesized by performing reverse transcription using an oligo dT primer and a Superscript reverse transcriptase (Gibco BRL, Gaithersburg, Md., USA). To measure expression levels of genes, real-time q-PCR was performed using SYBR Green (Bio-Rad, Hercules, Calif., USA), and the instrument used was a CFX Connect™ Real-Time PCR Detection System (Bio-Rad).
(§3) For real time PCR, 2 μL of cDNA, 10 μL of a 2× SYBR mix, 1 μL each of a forward primer and a reverse primer (10 to 20 pmol/μL) were added, and then, H2O was filled to the final volume 20 μL. A PCR extension step was performed as follows, and 35 extension cycles was performed. The extension was performed at 95° C. for 1 minute for hot start, at 95° C. for 15 seconds for denaturation in the extension step, at 55° C. for 30 seconds for annealing, and at 72° C. for 1 minute for extension. After all cycles were completed, to identify primer specificity, melting curve analysis was performed.
(§4) Change in expression of a β-catenin signaling material known as a mechanism for promoting hair development in skin tissue was analyzed by q-PCR analysis on dorsal skin tissue of a mouse to which the test material was applied for 4 weeks.

Cyclin D1 = test: q-PCR gene expression in dorsal skin tissue; format: in vivo, mouse; details: 4 weeks
Description: as §1, §2, §3, §4

T-Cell factor (TCF) = test: q-PCR gene expression in dorsal skin tissue; format: in vivo, mouse; details: 4 weeks
Description: as §1, §2, §3, §4

β-catenin [3] = test: q-PCR gene expression in dorsal skin tissue; format: in vivo, mouse; details: 4 weeks
Description: as §1, §2, §3, §4

[4] = clinical studies, 1% solution; cited from earlier work
rats = details: oral; cited from earlier work
hair follicles = test: histological analysis of dorsal skin; format: in vivo, C57BL/6N mice; details: 4 weeks of application
Description: The experimental animals were sacrificed after four weeks of the application, and a dorsal skin tissue specimen was extracted from the test material-applied region using scissors and forceps, and then fixed with formalin. By steps, the resulting specimen was dehydrated with an alcohol and xylene, embedded in paraffin, sliced into a 5-μm fragment using a microtome, and treated again with an alcohol and xylene to remove paraffin. After hematoxylin-eosin staining, a histological change in hair follicle tissue was observed using an optical microscope. The hair development cycle was evaluated by a pathologist, the number and diameter of hair follicles were measured using an optical microscope, and the number of hair follicles in the test group was measured under a 40× optical microscope.

rabbits = details: transdermal; cited from earlier work
diarrhea-induced mice = details: cited from earlier work
β-catenin [5] = test: Western blot of dorsal skin tissue; format: in vivo, mouse; details: Western blotting
Description: A predetermined amount of skin tissue was homogenized with liquid nitrogen and a lysis buffer using a mortar and centrifuged at 13,000×g and 4° C. for 20 minutes to obtain an intermediate layer, and then a protein was quantified by the Bradford method. 50 μg of the protein was subjected to electrophoresis on an SDS polyacrylamide gel and electroblotted onto a PVDF hyperfilm, and then reacted with a β-catenin or β-actin antibody (Cell Signaling Technology, Danvers, Mass., USA). A signal of each protein was visualized using a chemiluminescent detection system (Amersham), and then a band thickness was quantified using the Quantity One Analysis Software (Bo-Rad Laboratories).

telogen-phase hair = test: hair development state and hair length in shaved mice; format: in vivo, C57BL/6N mice; details: dermal 3 mg/mouse/day
Description: To visually examine a hair growth state, 1, 2, 3, and 4 weeks after the application started, the experimental animals were slightly anesthetized with ether, and a dorsal region was photographed. To evaluate the degree of hair growth, the hair length was measured using a ruler.

| SMILES | body weight, difference between test groups [1] | LEF gene expression compared with negative control [2] | cyclin D1 gene expression compared with negative control (Cyclin D1) | TCF gene expression compared with negative control (T-Cell factor (TCF)) | β-catenin gene expression compared with negative control (β-catenin [3]) | dermal irritation or sensitization reaction [4] | lethal dose 50% (LD50 value) (rats) | increase in number of hair follicles compared with negative control (hair follicles) [%] | microscopy of hair follicles (hair follicles) | increase in hair follicle diameter compared with negative control (hair follicles; image analysis) [%] | LD50 value (rabbits) | inhibition of diarrhea (diarrhea-induced mice) | increase in β-catenin protein expression compared with negative control (β-catenin [5]) [%] | β-catenin protein expression effect compared with Minoxidil group (β-catenin [5]) | hair length at three weeks (telogen-phase hair; 3 weeks) | visual hair growth after 4 weeks (telogen-phase hair; 4 weeks, vs negative control) | increase in hair length compared with negative control (telogen-phase hair; after four weeks, p<0.001) [%] | visual hair growth (onset) (telogen-phase hair; weekly photographs) |
| --- | --- | --- | --- | --- | --- | --- | --- | --- | --- | --- | --- | --- | --- | --- | --- | --- | --- | --- |
| Nc1cc(N2CCCCC2)nc(N)[n+]1[O-] [Minoxidil] | no significant difference | – | – | – | – | – | – | – | – | – | – | – | – | – | – | – | – | – |
| CCCCCCCCC=O [nonanal] | – | significantly increased | significantly increased | significantly increased | significantly increased | no dermal irritation or sensitization reaction | 5,000 mg/kg | 166 | hair follicles elongated to come out of the skin | 38 | 5,000 mg/kg | significant effect in inhibition of diarrhea | 71 | superior to that of the Minoxidil group | significantly increased | hair grew more evenly and fully in more individuals than that in the negative control group | 434 | from three weeks of the application, hair began to grow |
